ChEMBL document CHEMBL4834439, “New indenopyrazole linked oxadiazole conjugates as anti-pancreatic cancer agents: Design, synthesis, in silico studies including 3D-QSAR analysis” (Bioorg Med Chem Lett, 2021)

Legend:
[1] = system: MRC5; assay: Antiproliferative activity against human MRC5 cells assessed as reduction in cell viability after 48 hrs by MTT assay; type: cell-based; conditions: MRC5, 48 h
[2] = system: MCF7; assay: Antiproliferative activity against human MCF7 cells assessed as reduction in cell viability after 48 hrs by MTT assay; type: functional, cell-based; conditions: MCF7, 48 h
[3] = system: MDA-MB-231; assay: Antiproliferative activity against human MDA-MB-231 cells assessed as reduction in cell viability after 48 hrs by MTT assay; type: functional, cell-based; conditions: MDA-MB-231, 48 h
[4] = system: Caco-2; assay: Antiproliferative activity against human Caco-2 cells assessed as reduction in cell viability after 48 hrs by MTT assay; type: functional, cell-based; conditions: Caco-2, 48 h
[5] = system: PANC-1; assay: Antiproliferative activity against human PANC-1 cells assessed as reduction in cell viability after 48 hrs by MTT assay; type: functional, cell-based; conditions: PANC-1, 48 h
[6] = system: PANC-1; assay: Induction of apoptosis in human PANC-1 cells assessed as late apoptotic cells at 10 uM incubated for 48 hrs by annexin V FITC and propidium iodide staining based flow cytometry analysis (reference value: 0.1%); type: functional
[7] = system: PANC-1; assay: Induction of apoptosis in human PANC-1 cells assessed as late apoptotic cells at 5 uM incubated for 48 hrs by annexin V FITC and propidium iodide staining based flow cytometry analysis (reference value: 0.1%); type: functional
[8] = system: PANC-1; assay: Induction of apoptosis in human PANC-1 cells assessed as viable cells at 5 uM incubated for 48 hrs by annexin V FITC and propidium iodide staining based flow cytometry analysis (reference value: 99.5%); type: functional; conditions: read-out: Activity
[9] = system: PANC-1; assay: Induction of cell cycle arrest in human PANC-1 cells assessed as accumulation of cells at G0/G1 phase at 10 uM incubated for 48 hrs propidium iodide-A staining-based flow cytometric analysis (reference value: 48.58%); type: functional
[10] = system: PANC-1; assay: Induction of apoptosis in human PANC-1 cells assessed as necrotic cells at 5 uM incubated for 48 hrs by annexin V FITC and propidium iodide staining based flow cytometry analysis (reference value: 0%); type: functional
[11] = system: PANC-1; assay: Induction of cell cycle arrest in human PANC-1 cells assessed as accumulation of cells at S phase at 5 uM incubated for 48 hrs propidium iodide-A staining-based flow cytometric analysis (reference value: 44.71%); type: functional
[12] = system: PANC-1; assay: Induction of apoptosis in human PANC-1 cells assessed as increase in caspase 9 activity; type: functional, cell-based; conditions: dose 5-10 µM
[13] = system: PANC-1; assay: Induction of apoptosis in human PANC-1 cells assessed as early apoptotic cells at 10 uM incubated for 48 hrs by annexin V FITC and propidium iodide staining based flow cytometry analysis (reference value: 0.2%); type: functional
[14] = system: PANC-1; assay: Induction of cell cycle arrest in human PANC-1 cells assessed as accumulation of cells at G2/M phase at 10 uM incubated for 48 hrs propidium iodide-A staining-based flow cytometric analysis (reference value: 6.71%); type: functional
[15] = system: PANC-1; assay: Induction of apoptosis in human PANC-1 cells assessed as necrotic cells at 10 uM incubated for 48 hrs by annexin V FITC and propidium iodide staining based flow cytometry analysis (reference value: 0%); type: functional
[16] = system: PANC-1; assay: Induction of apoptosis in human PANC-1 cells assessed as viable cells at 10 uM incubated for 48 hrs by annexin V FITC and propidium iodide staining based flow cytometry analysis (reference value: 99.5%); type: functional; conditions: read-out: Activity
[17] = system: PANC-1; assay: Induction of cell cycle arrest in human PANC-1 cells assessed as accumulation of cells at S phase at 10 uM incubated for 48 hrs propidium iodide-A staining-based flow cytometric analysis (reference value: 44.71%); type: functional
[18] = system: PANC-1; assay: Induction of apoptosis in human PANC-1 cells assessed as increase in caspase 3 activity; type: functional, cell-based; conditions: dose 5-10 µM
[19] = system: PANC-1; assay: Induction of cell cycle arrest in human PANC-1 cells assessed as accumulation of cells at G2/M phase at 5 uM incubated for 48 hrs propidium iodide-A staining-based flow cytometric analysis (reference value: 6.71%); type: functional
[20] = system: PANC-1; assay: Induction of cell cycle arrest in human PANC-1 cells assessed as accumulation of cells at G0/G1 phase at 5 uM incubated for 48 hrs propidium iodide-A staining-based flow cytometric analysis (reference value: 48.58%); type: functional
[21] = system: PANC-1; assay: Induction of apoptosis in human PANC-1 cells assessed as early apoptotic cells at 5 uM incubated for 48 hrs by annexin V FITC and propidium iodide staining based flow cytometry analysis (reference value: 0.2%); type: functional

| SMILES | IC50 [2] | IC50 [3] | IC50 [4] | IC50 [5] | IC50 [1] | further results |
| --- | --- | --- | --- | --- | --- | --- |
| COc1ccc(/C=C/c2nnc(-c3[nH]nc4c3Cc3cc(OC)c(OC)cc3-4)o2)cc1OC | 14.5 µM | 23.2 µM | 22.7 µM | > 100 µM | 63 µM | – |
| C(=C\c1nnc(-c2[nH]nc3c2Cc2ccccc2-3)o1)/c1ccccc1 | 22.7 µM | 18.7 µM | 14.8 µM | > 50 µM | 45 µM | – |
| COc1cc2c(cc1OC)-c1n[nH]c(-c3nnc(/C=C/c4ccc([N+](=O)[O-])cc4)o3)c1C2 | 20.2 µM | 16.3 µM | 20 µM | 4.3 µM | 49 µM | Activity [6]: 31.2%; Activity [7]: 27.5%; viability at 5 µM [8]: 64.1%; Activity [9]: 24.94%; Activity [10]: 1.2%; Activity [11]: 53.38%; Activity [12]: Dose-Dependent Effect; Activity [13]: 2.5%; Activity [14]: 2%; Activity [15]: 10.3%; viability at 10 µM [16]: 52.2%; Activity [17]: 73.06%; Activity [18]: Dose-Dependent Effect; Activity [19]: 4.26%; Activity [20]: 42.09% |
| COc1cc2c(cc1OC)-c1n[nH]c(-c3nnc(/C=C/c4cc(OC)c(OC)c(OC)c4)o3)c1C2 | 14.4 µM | 13.5 µM | 57.4 µM | 18.4 µM | 77 µM | – |
| O=[N+]([O-])c1ccc(/C=C/c2nnc(-c3[nH]nc4c3Cc3cc(F)ccc3-4)o2)cc1 | – | 21.9 µM | > 100 µM | 16.8 µM | 89 µM | – |
| O=[N+]([O-])c1ccc(/C=C/c2nnc(-c3[nH]nc4c3Cc3ccccc3-4)o2)cc1 | 41.9 µM | 18.5 µM | 17.7 µM | 18.3 µM | 66 µM | – |
| COc1cc(/C=C/c2nnc(-c3[nH]nc4c3Cc3ccccc3-4)o2)cc(OC)c1OC | 37.2 µM | 18.4 µM | 31.7 µM | 24.2 µM | 55 µM | – |
| COc1cc(/C=C/c2nnc(-c3[nH]nc4c3Cc3cc(F)ccc3-4)o2)cc(OC)c1OC | 44.8 µM | 17.2 µM | 16.1 µM | 15.5 µM | 61 µM | – |
| Nc1ccn([C@@H]2O[C@H](CO)[C@@H](O)C2(F)F)c(=O)n1 [GEMCITABINE] | 6.1 µM | 8 µM | 9.4 µM | 4.2 µM | 80 µM | – |
| COc1cc2c(cc1OC)-c1n[nH]c(-c3nnc(/C=C/c4ccccc4)o3)c1C2 | 32.9 µM | 11.5 µM | 15 µM | 30.9 µM | 65 µM | – |
| Fc1ccc2c(c1)Cc1c-2n[nH]c1-c1nnc(/C=C/c2ccccc2)o1 | 60.4 µM | 18 µM | 15.9 µM | 21.5 µM | 66 µM | – |

More lines, main results first:

| IC50 [2] | IC50 [3] | IC50 [4] | IC50 [5] | SMILES | IC50 [1] | further results |
| --- | --- | --- | --- | --- | --- | --- |
| 63.8 µM | 37.2 µM | 15.6 µM | 39.9 µM | COc1ccc(/C=C/c2nnc(-c3[nH]nc4c3Cc3cc(F)ccc3-4)o2)cc1 | 52 µM | – |
| 17.1 µM | 13.5 µM | 39.7 µM | 20.6 µM | COc1ccc(/C=C/c2nnc(-c3[nH]nc4c3Cc3ccccc3-4)o2)cc1 | 38 µM | – |
| 20.6 µM | 21.3 µM | 57.1 µM | 7.4 µM | COc1ccc2c(c1)Cc1c-2n[nH]c1-c1nnc(/C=C/c2ccc([N+](=O)[O-])cc2)o1 | 41 µM | Activity [6]: 27.2%; Activity [7]: 16.5%; viability at 5 µM [8]: 76.7%; Activity [9]: 32.78%; Activity [10]: 4.6%; Activity [11]: 46.6%; Activity [12]: Dose-Dependent Effect; Activity [13]: 5.5%; Activity [14]: 7.35%; Activity [21]: 1.9%; Activity [15]: 7.5%; viability at 10 µM [16]: 60.3%; Activity [17]: 59.87%; Activity [18]: Dose-Dependent Effect; Activity [19]: 17.85%; Activity [20]: 36.55% |
| 56.2 µM | 26 µM | 22.8 µM | 36.4 µM | COc1ccc(/C=C/c2nnc(-c3[nH]nc4c3Cc3ccccc3-4)o2)cc1OC | 63 µM | – |
| 10.1 µM | 25 µM | 14.9 µM | 27.3 µM | COc1ccc(/C=C/c2nnc(-c3[nH]nc4c3Cc3cc(OC)c(OC)cc3-4)o2)cc1 | 89 µM | – |
| 18.1 µM | 17.6 µM | 18.7 µM | 23 µM | COc1ccc(/C=C/c2nnc(-c3[nH]nc4c3Cc3cc(F)ccc3-4)o2)cc1OC | 58 µM | – |
| 67.6 µM | 12.8 µM | 13.1 µM | 26 µM | COc1ccc2c(c1)Cc1c-2n[nH]c1-c1nnc(/C=C/c2ccccc2)o1 | 65 µM | – |
| 60.2 µM | 16.6 µM | 10.6 µM | 17.4 µM | COc1ccc(/C=C/c2nnc(-c3[nH]nc4c3Cc3cc(OC)ccc3-4)o2)cc1 | 54 µM | – |
